This note sets out measurements from ChEMBL document CHEMBL1127890, “Syntheses of new bacteriochlorins and their antitumor activity” (1994).

Common to all, as to format: functional
Conditions in all cases: route intravenous

Assay [1] has as its system Mus musculus. Put plainly: In vivo tumor response 3 hour after post i.v. injection at a dose of 5 mg/kg in DBA/2 mice having SMT/F tumor after 7 days.
Assay [2] has as its system Mus musculus. The experiment in a line: In vivo tumor response 3 hour after post i.v. injection at a dose of 5 mg/kg in DBA/2 mice having SMT/F tumor after 1-2 days.
Assay [3] has as its system Mus musculus. Put plainly: In vivo tumor response 3 hour after post i.v. injection at a dose of 5 mg/kg in DBA/2 mice having SMT/F tumor after 30 days.
Assay [4] has as its system Mus musculus. Put plainly: In vivo tumor response 3 hour after post i.v. injection at a dose of 5 mg/kg in DBA/2 mice having SMT/F tumor after 21 days.

Regarding `CCOC(=O)C(N)CCCCN1C(=O)C2=C(C)c3cc4[nH]c(cc5[nH]c(cc6nc(c(c2n3)C1=O)[C@@H](CCC(=O)OC)[C@@H]6C)c(C)c5C=O)C(C)(O)C4(O)CC` (some centres undefined), the Tumor response in the assay on Mus musculus [1] stood at 100%; in the assay with Mus musculus [2], 100%; with Mus musculus [3], 20%; in the assay with Mus musculus [4], 20%.

`CCC1(O)c2cc3nc4c(c5nc(cc6[nH]c(cc([nH]2)C1(C)O)c(C=O)c6C)[C@@H](C)[C@@H]5CCC(=O)NC(CC(=O)OC(C)(C)C)C(=O)OC(C)(C)C)C(=O)OC(=O)C4=C3C` (some centres undefined): the Tumor response in the assay with Mus musculus [1] is given as 100%; in the assay with Mus musculus [2], 100%; in the assay on Mus musculus [3], 80%; in the assay on Mus musculus [4], 80%.

Consider `CCC1(O)c2cc3nc4c(c5nc(cc6[nH]c(cc([nH]2)C1(C)O)c(C=O)c6C)[C@@H](C)[C@@H]5CCC(=O)OC)C(=O)OC(=O)C4=C3C` (some centres undefined), for which the Tumor response in the assay on Mus musculus [2] was found to be 0%.
